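The concentration for 50% growth inhibition is given as GI50. At the TGI there is no net growth.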
Legend:
Assay in all cases: NCI anticancer screen, dose series, 384-well format
786-0 renal = tested on: 786-0 renal
A498 renal = tested on: A498 renal
A549 NSCLC = tested on: A549 NSCLC
ACHN renal = tested on: ACHN renal
BT-549 breast = tested on: BT-549 breast
CAKI-1 renal = tested on: CAKI-1 renal
CCRF-CEM leukemia = tested on: CCRF-CEM leukemia
COLO 205 colon = tested on: COLO 205 colon
DU-145 prostate = tested on: DU-145 prostate
EKVX NSCLC = tested on: EKVX NSCLC
HCC-2998 colon = tested on: HCC-2998 colon
HCT-15 colon = tested on: HCT-15 colon
HL-60(TB) leukemia = tested on: HL-60(TB) leukemia
HOP-62 NSCLC = tested on: HOP-62 NSCLC
HOP-92 NSCLC = tested on: HOP-92 NSCLC
HS 578T breast = tested on: HS 578T breast
HT29 colon = tested on: HT29 colon
IGROV1 ovarian = tested on: IGROV1 ovarian
K-562 leukemia = tested on: K-562 leukemia
KM12 colon = tested on: KM12 colon
LOX IMVI melanoma = tested on: LOX IMVI melanoma
M14 melanoma = tested on: M14 melanoma
MALME-3M melanoma = tested on: MALME-3M melanoma
MCF7 breast = tested on: MCF7 breast
MDA-MB-231 breast = tested on: MDA-MB-231 breast
MDA-MB-435 melanoma = tested on: MDA-MB-435 melanoma
MDA-MB-468 breast = tested on: MDA-MB-468 breast
MOLT-4 leukemia = tested on: MOLT-4 leukemia
NCI-H226 lung = tested on: NCI-H226 lung
NCI-H23 lung = tested on: NCI-H23 lung
NCI-H322M lung = tested on: NCI-H322M lung
NCI-H460 NSCLC = tested on: NCI-H460 NSCLC
NCI-H522 lung = tested on: NCI-H522 lung
NCI/ADR-RES ovarian = tested on: NCI/ADR-RES ovarian
OVCAR-3 ovarian = tested on: OVCAR-3 ovarian
OVCAR-4 ovarian = tested on: OVCAR-4 ovarian
OVCAR-5 ovarian = tested on: OVCAR-5 ovarian
OVCAR-8 ovarian = tested on: OVCAR-8 ovarian
PC-3 prostate = tested on: PC-3 prostate
RPMI-8226 leukemia = tested on: RPMI-8226 leukemia
RXF 393 renal = tested on: RXF 393 renal
SF-268 CNS = tested on: SF-268 CNS
SF-295 CNS = tested on: SF-295 CNS
SF-539 CNS = tested on: SF-539 CNS
SK-MEL-28 melanoma = tested on: SK-MEL-28 melanoma
SK-MEL-5 melanoma = tested on: SK-MEL-5 melanoma
SK-OV-3 ovarian = tested on: SK-OV-3 ovarian
SN12C renal = tested on: SN12C renal
SNB-19 CNS = tested on: SNB-19 CNS
SNB-75 CNS = tested on: SNB-75 CNS
SR leukemia = tested on: SR leukemia
SW-620 colon = tested on: SW-620 colon
T-47D breast = tested on: T-47D breast
TK-10 renal = tested on: TK-10 renal
UACC-257 melanoma = tested on: UACC-257 melanoma
UACC-62 melanoma = tested on: UACC-62 melanoma
UO-31 renal = tested on: UO-31 renal

## Cn1c(=O)c2c(ncn2CC(=O)Nc2ccc(-c3ccccc3)nn2)n(C)c1=O
786-0 renal
  GI50: > 100 µM
  TGI: > 100 µM
A498 renal
  GI50: > 100 µM
  TGI: > 100 µM
A549 NSCLC
  GI50: > 100 µM
  TGI: > 100 µM
ACHN renal
  GI50: > 100 µM
  TGI: > 100 µM
BT-549 breast
  GI50: > 100 µM
  TGI: > 100 µM
CAKI-1 renal
  GI50: > 100 µM
  TGI: > 100 µM
CCRF-CEM leukemia
  GI50: 60.2 µM
  TGI: > 100 µM
COLO 205 colon
  GI50: > 100 µM
  TGI: > 100 µM
DU-145 prostate
  GI50: > 100 µM
  TGI: > 100 µM
EKVX NSCLC
  GI50: > 100 µM
  TGI: > 100 µM
HCC-2998 colon
  GI50: > 100 µM
  TGI: > 100 µM
HCT-15 colon
  GI50: > 100 µM
  TGI: > 100 µM
HL-60(TB) leukemia
  GI50: 6.01 µM
  TGI: > 100 µM
HOP-62 NSCLC
  GI50: > 100 µM
  TGI: > 100 µM
HOP-92 NSCLC
  GI50: > 100 µM
  TGI: > 100 µM
HS 578T breast
  GI50: 72.9 µM
  TGI: > 100 µM
HT29 colon
  GI50: > 100 µM
  TGI: > 100 µM
IGROV1 ovarian
  GI50: > 100 µM
  TGI: > 100 µM
K-562 leukemia
  GI50: > 100 µM
  TGI: > 100 µM
KM12 colon
  GI50: > 100 µM
  TGI: > 100 µM
LOX IMVI melanoma
  GI50: > 100 µM
  TGI: > 100 µM
M14 melanoma
  GI50: > 100 µM
  TGI: > 100 µM
MALME-3M melanoma
  GI50: > 100 µM
  TGI: > 100 µM
MCF7 breast
  GI50: > 100 µM
  TGI: > 100 µM
MDA-MB-231 breast
  GI50: 70.8 µM
  TGI: > 100 µM
MDA-MB-435 melanoma
  GI50: > 100 µM
  TGI: > 100 µM
MDA-MB-468 breast
  GI50: 15.9 µM
  TGI: 96.4 µM
MOLT-4 leukemia
  GI50: > 100 µM
  TGI: > 100 µM
NCI-H226 lung
  GI50: > 100 µM
  TGI: > 100 µM
NCI-H23 lung
  GI50: > 100 µM
  TGI: > 100 µM
NCI-H322M lung
  GI50: > 100 µM
  TGI: > 100 µM
NCI-H460 NSCLC
  GI50: > 100 µM
  TGI: > 100 µM
NCI-H522 lung
  GI50: > 100 µM
  TGI: > 100 µM
NCI/ADR-RES ovarian
  GI50: > 100 µM
  TGI: > 100 µM
OVCAR-3 ovarian
  GI50: > 100 µM
  TGI: > 100 µM
OVCAR-4 ovarian
  GI50: 25.8 µM
  TGI: > 100 µM
OVCAR-5 ovarian
  GI50: > 100 µM
  TGI: > 100 µM
OVCAR-8 ovarian
  GI50: > 100 µM
  TGI: > 100 µM
PC-3 prostate
  GI50: > 100 µM
  TGI: > 100 µM
RPMI-8226 leukemia
  GI50: > 100 µM
  TGI: > 100 µM
RXF 393 renal
  GI50: 27.1 µM
  TGI: > 100 µM
SF-268 CNS
  GI50: > 100 µM
  TGI: > 100 µM
SF-295 CNS
  GI50: > 100 µM
  TGI: > 100 µM
SF-539 CNS
  GI50: > 100 µM
  TGI: > 100 µM
SK-MEL-28 melanoma
  GI50: > 100 µM
  TGI: > 100 µM
SK-MEL-5 melanoma
  GI50: 3.44 µM
  TGI: > 100 µM
SK-OV-3 ovarian
  GI50: > 100 µM
  TGI: > 100 µM
SN12C renal
  GI50: > 100 µM
  TGI: > 100 µM
SNB-19 CNS
  GI50: > 100 µM
  TGI: > 100 µM
SNB-75 CNS
  GI50: > 100 µM
  TGI: > 100 µM
SR leukemia
  GI50: 21.6 µM
  TGI: > 100 µM
SW-620 colon
  GI50: > 100 µM
  TGI: > 100 µM
T-47D breast
  GI50: 36.3 µM
  TGI: > 100 µM
TK-10 renal
  GI50: > 100 µM
  TGI: > 100 µM
UACC-257 melanoma
  GI50: 49.8 µM
  TGI: > 100 µM
UACC-62 melanoma
  GI50: 74.6 µM
  TGI: > 100 µM
UO-31 renal
  GI50: > 100 µM
  TGI: > 100 µM
